Source: patent US8227604B2, “Hybrid 2-aminotetralin and aryl-substituted piperazine compounds and their use in altering CNS activity” (Wayne State University, priority 2001, dated 2012)

Columns and labels:
D2 receptor [1] = molecular target: T1, D2 receptor (Homo sapiens, UniProt P14416); assay: Agonist potency by [3H]thymidine incorporation (mitogenesis), D2; format: cell-based; conditions: [3H]thymidine incorporation; for Emax: >80% full agonist, read-out: D2 % Maxm Stim
T1 construct: expressed in transfected cells
Experimental: (§1) Potential as domaminergenic agonists was assayed by ^3H-thymidine incorporation by standard techniques.
(§2) The EC50 values thus indicate intrinsic activities or functional activities of these compounds. The value of % maximum stimulation indicates whether a compound is a partial agonist or full agonist. Generally, a value greater than 80% is considered as a full agonist and anything less than 80% is considered as a partial agonist.

D2 receptor [2] = molecular target: T1, D2 receptor; assay: Binding affinity at cloned human D2 receptor, [3H]YM-09151-2 (CHOp-D2 cells)
Experimental: (§3) CHOp-cells (human receptors) are grown to confluence in a minimum essential medium (α MEM) containing 10% fetal calf serum, 0.05% pen-strep, and 600 μg/ml of G418. The cells are scraped from the 100 by 20 mm plates and centrifuged at 500. g for 5 min. The pellet is homogenized by polytron in 50 mM Tris-HCl, pH 7.7, and centrifuged at 27,000·G for 12 min. The pellet is resuspended in 50 mM Tris, D2 at 5 mg protein/ml, D3 at 1 mg protein/ml, and stored at −70° C. in 1-ml aliquots.
(§4) On the day of the experiment, CHOp-D2 or CHOp-D3 cells are thawed, resuspended in 50 mM Tris, and centrifuged at 27,000·G for 12 min. The pellet is then resuspended at 5 mg protein/80 ml (D2) and 1 mg protein/80 ml (D3) in 50 mM Tris containing 120 mM of NaCl, 5 mM of KCl, 1.5 mM of CaCl2, 4 mM of MgCl2, and 1 mM of EDTA, pH 7.4. […] Nonspecific binding is determined with 1 mM of chlorpromazine. The plates are incubated at 25° C. for 60 min before filtration and counted as usual. The filters are soaked in 0.1% PEI before filtering.

D3 receptor [3] = molecular target: T2, D3 receptor (Homo sapiens, UniProt P35462); assay: Agonist potency by [3H]thymidine incorporation (mitogenesis), D3; format: cell-based; design: expressed in transfected cells; host or cells: CHOp-D3 cells; conditions: for EC50 / Emax: [3H]thymidine incorporation; for Emax: >80% full agonist, read-out: D3 % Maxm Stim
Experimental: as §1, §2

D3 receptor [4] = molecular target: T2, D3 receptor; assay: Binding affinity at cloned human D3 receptor, [3H]YM-09151-2 (CHOp-D3 cells); design: expressed in transfected cells; host or cells: CHOp-D3 cells; conditions: for Ki: cloned human D3; for D2/D3: ratio of Ki D2 to Ki D3, [3H]YM-09151-2 protocol of Table 4
Experimental: as §3, §4

D1 receptor = molecular target: T3, D1 receptor (Homo sapiens, UniProt P21728); assay: Binding affinity at cloned human D1 receptor, [3H]SCH23390 (LHD1 cells)
T3 construct: expressed in transfected cells; host or cells: LHD1 cells
Experimental: LHD1 cells (human receptor) are grown and prepared as described for the HA7 cells as described hereafter. The final pellet is resuspended at 5 mg protein/80 ml in 50 mM Tris-HCl containing 120 mM of NaCl, 5 mM of KCl, 2 mM of CaCl2, and 1 mM of MgCl2, pH 7.4. To wells containing 100 μl of test drug or buffer and […] of [^3H]SCH 23390 (0.18 nM final conc.), is added 0.8 ml of cell homogenate (0.05 mg protein/well), and the plates are incubated at […] for 60 min. Nonspecific binding is determined with 1 μM of SCH 23390.

D2L receptor = molecular target: T4, D2L receptor (Homo sapiens, UniProt P14416); assay: Inhibition constants for binding to cloned D2L receptor expressed in HEK cells, [3H]spiperone
T4 construct: expressed in transfected cells; host or cells: HEK cells
Experimental: Inhibition constants for binding to cloned D2L and D3 receptors expressed in HEK cells by displacing [^3H] spiperone were measured for several compounds.

D4 receptor [5] = molecular target: T5, D4 receptor (Homo sapiens, UniProt P21917); assay: Binding affinity at cloned human D4 receptor, [3H]YM-09151-2 (CHO D4.4 cells); design: expressed in transfected cells; host or cells: CHO D4.4 cells; conditions: for Ki: cloned human D4
T5 sequence (P21917 1-419): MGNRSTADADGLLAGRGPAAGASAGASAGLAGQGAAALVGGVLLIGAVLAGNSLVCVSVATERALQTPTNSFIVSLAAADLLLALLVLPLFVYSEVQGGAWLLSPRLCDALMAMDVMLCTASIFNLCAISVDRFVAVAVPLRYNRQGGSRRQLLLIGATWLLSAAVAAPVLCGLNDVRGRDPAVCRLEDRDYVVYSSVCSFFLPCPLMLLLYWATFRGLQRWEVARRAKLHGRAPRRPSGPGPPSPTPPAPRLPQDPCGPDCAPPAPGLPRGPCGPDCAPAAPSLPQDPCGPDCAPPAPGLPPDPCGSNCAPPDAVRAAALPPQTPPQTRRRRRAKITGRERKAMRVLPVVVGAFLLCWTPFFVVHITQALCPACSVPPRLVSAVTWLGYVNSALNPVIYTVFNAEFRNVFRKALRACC
Experimental: CHO D4.4 cells (human receptors) are grown to confluence in D4 Puromycin medium containing 2 μg/ml puromycin, 5% fetal calf serum and 5 supplemented calf serum and 0.5% pen-strep. The cells are harvested as described for D2 and D3 cells and used at a concentration of 0.15 mg protein/well in the [^3H]YM-09151-2 binding assay.

D4 receptor [6] = molecular target: T5, D4 receptor; assay: Agonist potency by [3H]thymidine incorporation (mitogenesis), D4; format: cell-based; design: expressed in transfected cells; conditions: for EC50 / D4 % Maxm Stim: [3H]thymidine incorporation; for D4 % Maxm Stim: >80% full agonist
Experimental: as §1
The mitogenesis study results presented in Table 7 assay the ability of these ligands to act as agonists or antagonists. The EC50 values thus indicate intrinsic activities or functional activities of these compounds. The value of % maximum stimulation indicates whether a compound is a partial agonist or full agonist. Generally, a value greater than 80% is considered as a full agonist and anything less than 80% is considered as a partial agonist. A compound will be considered antagonist if it produces a negative result (no [3H]thymidine incorporation) in the assay. All the compounds reported in Table 7 are either full agonists or partial agonists.

T3 sequence (P21728 whole entry): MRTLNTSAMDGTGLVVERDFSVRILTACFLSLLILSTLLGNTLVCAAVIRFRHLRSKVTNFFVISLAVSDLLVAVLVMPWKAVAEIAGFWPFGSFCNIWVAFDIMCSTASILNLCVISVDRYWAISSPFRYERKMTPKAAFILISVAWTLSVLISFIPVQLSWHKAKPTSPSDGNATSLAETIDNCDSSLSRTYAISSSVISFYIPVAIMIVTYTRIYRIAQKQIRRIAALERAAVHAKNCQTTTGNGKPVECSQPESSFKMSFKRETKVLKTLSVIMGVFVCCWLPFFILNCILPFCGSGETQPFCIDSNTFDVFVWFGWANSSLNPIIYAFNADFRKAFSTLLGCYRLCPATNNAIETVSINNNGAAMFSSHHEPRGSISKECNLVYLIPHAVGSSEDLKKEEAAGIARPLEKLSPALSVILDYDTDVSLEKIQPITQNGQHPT
T2 sequence (P35462 whole entry): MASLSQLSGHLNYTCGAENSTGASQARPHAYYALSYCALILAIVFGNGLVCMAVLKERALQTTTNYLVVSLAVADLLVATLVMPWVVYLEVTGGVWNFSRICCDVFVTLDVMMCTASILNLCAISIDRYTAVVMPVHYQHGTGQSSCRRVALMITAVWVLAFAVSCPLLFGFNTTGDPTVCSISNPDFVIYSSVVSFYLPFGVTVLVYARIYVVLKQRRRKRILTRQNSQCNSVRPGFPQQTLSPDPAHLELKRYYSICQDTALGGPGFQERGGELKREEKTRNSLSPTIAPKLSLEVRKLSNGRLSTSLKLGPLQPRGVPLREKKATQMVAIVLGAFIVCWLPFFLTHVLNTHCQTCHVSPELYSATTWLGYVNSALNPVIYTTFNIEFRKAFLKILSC
T1 sequence (P14416 whole entry): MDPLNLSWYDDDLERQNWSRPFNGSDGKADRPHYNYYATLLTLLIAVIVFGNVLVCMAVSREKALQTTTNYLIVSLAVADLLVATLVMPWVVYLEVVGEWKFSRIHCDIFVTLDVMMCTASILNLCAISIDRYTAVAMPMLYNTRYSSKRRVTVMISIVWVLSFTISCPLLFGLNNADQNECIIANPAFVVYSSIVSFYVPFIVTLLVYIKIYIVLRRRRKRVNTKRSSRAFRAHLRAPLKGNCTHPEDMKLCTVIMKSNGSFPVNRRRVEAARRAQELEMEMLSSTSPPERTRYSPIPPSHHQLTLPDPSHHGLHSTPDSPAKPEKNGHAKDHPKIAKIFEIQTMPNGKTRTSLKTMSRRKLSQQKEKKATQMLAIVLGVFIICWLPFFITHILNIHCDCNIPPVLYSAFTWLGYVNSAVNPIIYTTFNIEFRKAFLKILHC
T4 sequence (P14416 whole entry): as above

| SMILES | EC50 (D2 receptor [1]) | Emax (D2 receptor [1]) | Ki (D2 receptor [2]) | EC50 (D3 receptor [3]) | Emax (D3 receptor [3]) | Ki (D3 receptor [4]) | D2/D3 (D3 receptor [4]) | Ki (D1 receptor) | Ki (D2L receptor) | Ki (D4 receptor [5]) | EC50 (D4 receptor [6]) | D4 % Maxm Stim (D4 receptor [6]) | agonist character at the D3 receptor (D3 receptor [3]; functional assay) | affinity at the D4 receptor (D4 receptor [5]) | agonist character at the D4 receptor (D4 receptor [6]; functional assay) |
| --- | --- | --- | --- | --- | --- | --- | --- | --- | --- | --- | --- | --- | --- | --- | --- |
| N#CCCCN(CCCCN1CCN(c2ccccc2)CC1)C1CCc2ccc(O)cc2C1 (centres unmarked) [Compound 8, 7-Hydroxy-2-[N-butyonitrile-(N-(4-phenylpiperazin-1-yl)-butyl)amino]tetralin] | 74.5 ± 32.9 nM | 54.1 ± 4.82% | 89.8 ± 32.5 nM | 68.1 ± 36.7 nM | 67.1 ± 1.93% | 75.8 ± 6.29 nM | 1.18 | 3218 ± 7.77 nM | 622 ± 102 nM | 142 ± 6.5 nM | 54.8 ± 18.6 nM | – | – | – | – |
| O=C(NCCCCN(CCCCN1CCN(c2ccccc2)CC1)C1CCc2ccc(O)cc2C1)c1ccccc1 (centres unmarked) [Compound 10a, 7-Hydroxyl-2-[N-(4-benzoylaminobutyl)-(N-(4-phenylpiperazin-1-yl)-butyl)amino]tetralin] | 115 ± 20.2 nM | 44.9 ± 0.84% | 119 ± 1.45 nM | 110 ± 33.3 nM | 44.1 ± 11.6% | 313 ± 6.47 nM | 0.38 | 3730 ± 272 nM | 782 ± 42 nM | 137 ± 10.2 nM | 32.2 ± 2.51 nM | 51.08 ± 1.72% | – | – | – |
| O=C(NCCN(CCCCN1CCN(c2ccccc2)CC1)C1CCc2ccc(O)cc2C1)c1ccccc1 (centres unmarked) [Compound 10b, 7-Hydroxy-2-[N-(2-benzoylamino)ethyl-(N-(4-phenylpiperazin-1-yl)-butyl)amino]tetralin] | 97.2 ± 47.7 nM | 27 ± 5.54% | 111 ± 32.2 nM | 104 ± 57.3 nM | 50.9 ± 12.6% | 84.6 ± 1.55 nM | 1.30 | 2950 ± 238 nM | 354 ± 2 nM | 35.6 ± 1.42 nM | 26.7 ± 10.6 nM | 71.36 ± 10.17% | – | – | – |
| CCCN(CCCCN1CCN(c2ccccc2)CC1)C1CCc2ccc(O)cc2C1 (centres unmarked) [Compound 15b, 7-Hydroxyl-2-[N-propyl-(N-(4-phenylpiperazin-1-yl)-butyl)amino]tetralin] | 3.21 ± 0.46 nM | 121 ± 26.1% | 3.37 ± 0.78 nM | 0.91 ± 0.46 nM | 74.9 ± 9.05% | 3.47 ± 0.08 nM | 1 | 6120 ± 933 nM | 114 ± 8 nM | 25.7 ± 25.7 nM | 22.5 ± 11 nM | 102.81 ± 20.21% | partial agonism | good affinity | full agonists |
